Measurements reported in patent publication US10760110B2, “Antibiotic testing and screening system” (priority 2017, dated 2020).
In brackets after ≈: the same amount, converted by molar mass. Like-named read-outs stand apart in the source and are kept apart here.

What was measured:
Settings in all cases: Klebsiella pneumoniae
[1] = tested on: K. pneumoniae NVT1001 ΔramRΔompK35/36 mutant and its revertants; experiment: Etest MIC, ΔramRΔompK35/36 mutant and its revertants (Table 7); assay type: cell-based
[2] = tested on: K. pneumoniae NVT1001 strains with carbapenemase plasmids; experiment: Etest MIC of β-lactams, OmpK35/36 loss, ΔramR and/or carbapenemase (Table 9); assay type: cell-based, Klebsiella pneumoniae
Description: DNA fragments of the resistance genes along with their flanking regions were amplified from clinical plasmids via PCR with specific primer pairs. The resulting PCR fragments were digested and then cloned into the plasmid pACYC177 or pACYC184. The resulting plasmids were then transformed into K. pneumoniae strain NVT1001 via electroporation. The recombinant bacteria were plated onto LB agar plates containing kanamycin (50 mg/L) or chloramphenicol (50 mg/L), and the presence of the cloned gene was confirmed via PCR and DNA sequencing.
The MICs of antibiotics were determined using the Etest (Biodisk AB, Sweden) according to the manufacturer's instructions. The MICs from the Etest, which fall between standard two-fold dilutions, were rounded up to the next highest two-fold value. The MICs of ceftazidime and cefotaxime against K. pneumoniae NVT1001 harbouring the pACYC177 plasmid with blaOXA-48 were further determined using a broth microdilution test according to the recommendations of the CLSI,^25 and the results were interpreted according to the breakpoints established by the CLSI in 2017.^25 Meanwhile, due to the lack of CLSI breakpoints in 2016 and 2017, the results for cephalothin were interpreted according to the breakpoints established by the CLSI in 2015,^26 and the results for moxifloxacin were interpreted according to the breakpoints established by the EUCAST in 2017.^27

[3] = tested on: K. pneumoniae NVT1001 and its ΔompK35/36 and/or ΔramR mutants; experiment: Etest MIC, OmpK35/36 loss and AcrAB-TolC overexpression (ΔramR) strains (Table 6); assay type: cell-based, Klebsiella pneumoniae
Outline: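 Ceftazidime and cefotaxime were tested by CLSI broth microdilution on the blaOXA-48 pACYC177 transformant of NVT1001, using CLSI 2017 breakpoints. Parent, porin-deleted (ΔompK35/36) and ΔramR strains were tested by Etest, with values between two-fold dilutions rounded up.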

Structure (SMILES): CC(C)(O/N=C(\C(=O)N[C@@H]1C(=O)N2C(C(=O)[O-])=C(C[n+]3ccccc3)CS[C@H]12)c1csc(N)n1)C(=O)O [Ceftazidime]
- MIC ([1]; ΔramRΔompK35/36::ompK35/36 revertant): 2 mg/L
- MIC ([1]; ΔramRΔompK35/36::ompK35 revertant): 2 mg/L
- MIC ([1]; ΔramRΔompK35/36::ompK36 revertant): 2 mg/L
- MIC ([1]; ΔramRΔompK35/36::ramR revertant): 1 mg/L
- MIC ([1]; ΔramRΔompK35/36::ramR::ompK35/36 revertant): 0.25 mg/L
- MIC ([1]; ΔramRΔompK35/36::ramR::ompK35 revertant): 0.25 mg/L
- MIC ([1]; ΔramRΔompK35/36::ramR::ompK36 revertant): 1 mg/L
- MIC ([1]; ΔramRΔompK35/36 mutant): 2 mg/L
- MIC ([2]; IMP-8 on pACYC177, WT (NVT1001), read-out: MIC): > 256 mg/L
- MIC ([2]; IMP-8 on pACYC177, Δ35 (ΔompK35 mutant)): > 256 mg/L
- MIC ([2]; IMP-8 on pACYC177, Δ35/36 (ΔompK35/36 mutant)): > 256 mg/L
- MIC ([2]; IMP-8 on pACYC177, Δ36 (ΔompK36 mutant)): > 256 mg/L
- MIC ([2]; IMP-8 on pACYC177, ΔramR mutant): > 256 mg/L
- MIC ([2]; IMP-8 on pACYC177, ΔramRΔ35 (ΔramRΔompK35 mutant)): > 256 mg/L
- MIC ([2]; IMP-8 on pACYC177, ΔramRΔ35/36 (ΔramRΔompK35/36 mutant)): > 256 mg/L
- MIC ([2]; IMP-8 on pACYC177, ΔramRΔ36 (ΔramRΔompK36 mutant)): > 256 mg/L
- MIC ([2]; KPC-2 on pACYC177, WT (NVT1001), read-out: MIC): 16 mg/L
- MIC ([2]; KPC-2 on pACYC177, Δ35 (ΔompK35 mutant)): 64 mg/L
- MIC ([2]; KPC-2 on pACYC177, Δ35/36 (ΔompK35/36 mutant)): 256 mg/L
- MIC ([2]; KPC-2 on pACYC177, Δ36 (ΔompK36 mutant)): 32 mg/L
- MIC ([2]; KPC-2 on pACYC177, ΔramR mutant): 128 mg/L
- MIC ([2]; KPC-2 on pACYC177, ΔramRΔ35 (ΔramRΔompK35 mutant)): 128 mg/L
- MIC ([2]; KPC-2 on pACYC177, ΔramRΔ35/36 (ΔramRΔompK35/36 mutant)): 128 mg/L
- MIC ([2]; KPC-2 on pACYC177, ΔramRΔ36 (ΔramRΔompK36 mutant)): 128 mg/L
- MIC ([2]; KPC-3 on pACYC177, WT (NVT1001), read-out: MIC): 128 mg/L
- MIC ([2]; KPC-3 on pACYC177, Δ35 (ΔompK35 mutant)): > 256 mg/L
- MIC ([2]; KPC-3 on pACYC177, Δ35/36 (ΔompK35/36 mutant)): > 256 mg/L
- MIC ([2]; KPC-3 on pACYC177, Δ36 (ΔompK36 mutant)): 128 mg/L
- MIC ([2]; KPC-3 on pACYC177, ΔramR mutant): > 256 mg/L
- MIC ([2]; KPC-3 on pACYC177, ΔramRΔ35 (ΔramRΔompK35 mutant)): > 256 mg/L
- MIC ([2]; KPC-3 on pACYC177, ΔramRΔ35/36 (ΔramRΔompK35/36 mutant)): > 256 mg/L
- MIC ([2]; KPC-3 on pACYC177, ΔramRΔ36 (ΔramRΔompK36 mutant)): > 256 mg/L
- MIC ([2]; NDM-1 on pACYC177, WT (NVT1001), read-out: MIC): > 256 mg/L
- MIC ([2]; NDM-1 on pACYC177, Δ35 (ΔompK35 mutant)): > 256 mg/L
- MIC ([2]; NDM-1 on pACYC177, Δ35/36 (ΔompK35/36 mutant)): > 256 mg/L
- MIC ([2]; NDM-1 on pACYC177, Δ36 (ΔompK36 mutant)): > 256 mg/L
- MIC ([2]; NDM-1 on pACYC177, ΔramR mutant): > 256 mg/L
- MIC ([2]; NDM-1 on pACYC177, ΔramRΔ35 (ΔramRΔompK35 mutant)): > 256 mg/L
- MIC ([2]; NDM-1 on pACYC177, ΔramRΔ35/36 (ΔramRΔompK35/36 mutant)): > 256 mg/L
- MIC ([2]; NDM-1 on pACYC177, ΔramRΔ36 (ΔramRΔompK36 mutant)): > 256 mg/L
- MIC ([2]; OXA-48 on pACYC177, WT (NVT1001), read-out: MIC): 0.5 mg/L
- MIC ([2]; OXA-48 on pACYC177, Δ35 (ΔompK35 mutant)): 1 mg/L
- MIC ([2]; OXA-48 on pACYC177, Δ35/36 (ΔompK35/36 mutant)): 2 mg/L
- MIC ([2]; OXA-48 on pACYC177, Δ36 (ΔompK36 mutant)): 0.5 mg/L
- MIC ([2]; OXA-48 on pACYC177, ΔramR mutant): 2 mg/L
- MIC ([2]; OXA-48 on pACYC177, ΔramRΔ35 (ΔramRΔompK35 mutant)): 2 mg/L
- MIC ([2]; OXA-48 on pACYC177, ΔramRΔ35/36 (ΔramRΔompK35/36 mutant)): 2 mg/L
- MIC ([2]; OXA-48 on pACYC177, ΔramRΔ36 (ΔramRΔompK36 mutant)): 2 mg/L
- MIC ([2]; VIM-1 on pACYC177, WT (NVT1001), read-out: MIC): > 256 mg/L
- MIC ([2]; VIM-1 on pACYC177, Δ35 (ΔompK35 mutant)): > 256 mg/L
- MIC ([2]; VIM-1 on pACYC177, Δ35/36 (ΔompK35/36 mutant)): > 256 mg/L
- MIC ([2]; VIM-1 on pACYC177, Δ36 (ΔompK36 mutant)): > 256 mg/L
- MIC ([2]; VIM-1 on pACYC177, ΔramR mutant): > 256 mg/L
- MIC ([2]; VIM-1 on pACYC177, ΔramRΔ35 (ΔramRΔompK35 mutant)): > 256 mg/L
- MIC ([2]; VIM-1 on pACYC177, ΔramRΔ35/36 (ΔramRΔompK35/36 mutant)): > 256 mg/L
- MIC ([2]; VIM-1 on pACYC177, ΔramRΔ36 (ΔramRΔompK36 mutant)): > 256 mg/L
- MIC ([2]; no supplemental plasmid, WT (NVT1001), read-out: MIC): 0.25 mg/L
- MIC ([2]; no supplemental plasmid, Δ35 (ΔompK35 mutant)): 0.5 mg/L
- MIC ([2]; no supplemental plasmid, Δ35/36 (ΔompK35/36 mutant)): 1 mg/L
- MIC ([2]; no supplemental plasmid, Δ36 (ΔompK36 mutant)): 0.5 mg/L
- MIC ([2]; no supplemental plasmid, ΔramR mutant): 2 mg/L
- MIC ([2]; no supplemental plasmid, ΔramRΔ35 (ΔramRΔompK35 mutant)): 2 mg/L
- MIC ([2]; no supplemental plasmid, ΔramRΔ35/36 (ΔramRΔompK35/36 mutant)): 2 mg/L
- MIC ([2]; no supplemental plasmid, ΔramRΔ36 (ΔramRΔompK36 mutant)): 2 mg/L
- MIC ([3]; WT, NVT1001, read-out: MIC): 0.25 mg/L (≈ 0.457 µM)
- MIC ([3]; Δ35, ΔompK35 mutant): 0.5 mg/L (≈ 0.915 µM)
- MIC ([3]; Δ35/36, ΔompK35/36 mutant): 1 mg/L (≈ 1.83 µM)
- MIC ([3]; Δ36, ΔompK36 mutant): 0.5 mg/L (≈ 0.915 µM)
- MIC ([3]; ΔramR mutant): 2 mg/L (≈ 3.66 µM)
- MIC ([3]; ΔramRΔ35, ΔramRΔompK35 mutant): 2 mg/L (≈ 3.66 µM)
- MIC ([3]; ΔramRΔ35/36, ΔramRΔompK35/36 mutant): 2 mg/L (≈ 3.66 µM)
- MIC ([3]; ΔramRΔ36, ΔramRΔompK36 mutant): 2 mg/L (≈ 3.66 µM)
